Measured values reported in patent US20170074857A1, “MEDICATION ADHERENCE MONITORING DEVICE” (UNIVERSITY OF FLORIDA RESEARCH FOUNDATION, INC., priority 2014, published 2017).
Where two headings read alike, the source gives them in different places.

Key:
[1] = cited from earlier work
[2] = cited from earlier work; remark: listed apart in the source
[3] = orally; FDA Q3C guidance; cited from earlier work
[4] = Example 26: breath d6-acetone after 100 mg d8-isopropanol per diem for 5 days (LTQ-LCMS); details: in vivo; for Half-life: human, 100 mg
Experimental: 100 mg aliquots (125 μL) of neat d8-isopropanol were ingested at 24 h intervals for a period of 5 days. Each aliquot was administered in a size 0 LiCap along with ˜200 mL of water.
Each breath sample consisted of a single full breath exhaled directly into the modified ESI source.
Following the ingestion of each aliquot, breath samples were taken every 2 min for the first 30 min following ingestion, every 5 min from 30-60 min after ingestion and every 10 min from 60-120 min. Additional breath samples were collected at ˜9 h and 20 h after ingestion. After the final dose, breath samples were taken once every 24 h for the next 3 days (total study time=8 days).

[5] = not given; remark: listed apart in the source
clinical = details: human, exhaled breath, oral, 100 mg
[6] = Example 4a: noncompartmental pharmacokinetics of exhaled 2-butanone and 2-pentanone by mGC; assay type: in vivo, human; details: human, in vivo
From the text: Test Materials. […] 2-butanol was purchased from Penta Manufacturing Company (Fairfield, N.J.). 2-pentanol and L-carvone were purchased from Sigma-Aldrich (St. Louis, Mo.). […] 2-pentanone was also used as a taggant, but we hypothesized that its inherent volatility would allow exhalation without need for metabolism. L-carvone tastes like spearmint and was used as a flavor mask. All capsules were filled on the day of the experiment.
Subject Enrollment and Protocol. This protocol (20100140) was approved by the Western Institutional Review Board (Olympia, Wash.). Healthy subjects (n=5) aged >18 years of age and of either sex were recruited. Informed, written consent was obtained from all enrolled subjects. The study consisted of a single experimental limb with six replicates per subject. Therefore, for five subjects with six replicated experiments, a total of 30 studies were performed. Subjects were free to eat ad lib prior to participation in the study. At commencement of the experiments, subjects provided a baseline breath sample (designated time 0 min) into the mGC for analysis as described subsequently. Then, subjects orally consumed the previously detailed capsule with 177 mL (6 ounces) of water. Following ingestion, we observed the breath concentration-time relationships of 2-butanone and 2-pentanone by collecting single-breath samples at times 5, 10, 15, 20, 30, 45, and 60 min. After 60 min, the experiment was concluded. After at least one day's respite, subjects returned for replicate experiments on five additional occasions.
2-Butanone and 2-Pentanone Measurement in Human Breath by mGC. Breath specimens were analyzed “real-time” to measure the concentrations of 2-butanone and 2-pentanone using the mGC (Xhale, Inc. Gainesville, Fla.) as previously described. In brief, a mouthpiece (FST®, Intoximeters, Inc., St. Louis, Mo.) was attached to the inlet of the mGC. A 15 mL side-stream sample was aspirated during a single exhalation over 5 s through this inlet port to a room temperature concentrator trap containing 4 mg of Tenax TA (Sigma-Aldrich). The trap temperature was then increased to 130° C. and the volatile components transferred to a 5 m by 0.53 mm internal diameter, metal clad, BAC-1 capillary column (Restek Corp, Bellefonte, Pa.) operated at 55° C. The effluent from the column then flowed to the metal oxide detectors. Separation of the markers from other volatile organic compounds present in the sample (i.e., acetone and isoprene) occurred in approximately 2 min. Data were tabulated and graphically presented over time to determine the concentrations of 2-butanone and 2-pentanone in a given breath specimen. Data are reported in parts-per-billion (ppb) based on molar fractions to account for differing ambient atmospheric pressures and temperature.
Pharmacokinetic Analysis. Analyte breath concentrations reported as ppb were converted to ng/mL by multiplying each concentration by the molecular weight of the respective molecule to allow proper functioning of conventional PK software for noncompartmental analysis (WinNonlin 5.2, Pharsight Corporation, St. Louis, Mo.). Estimates were generated for the following PK parameters (abbreviation, unit): first-order elimination rate constant (Lambda Z, min-1), half-life of elimination (Half-life, min), maximal drug concentration (CMAX, μg/mL), time at maximal drug concentration (TMAX, min), area under concentration versus time curve from zero to the last time point (AUC0-LAST, min*μg/mL), area under concentration versus time curve from zero to infinity (AUC0-∞, min*μg/mL), percentage of area under concentration versus time curve from zero to infinity, which is extrapolated from AUC0-t (% AUC Extrap) and the mean residence time (MRT, min). The area under concentration versus time curve (AUC) was calculated using the linear trapezoidal rule. All values are reported separately for each subject as mean±standard deviation following conversion from ng/mL to ppb. […]

[7] = tested on: human carboxylesterases and tissue esterases; details: metabolized by human carboxyesterases and tissue esterases; cited from earlier work
[8] = in vivo
From the text: FIG. 79. […] The experimental data was curve fit (parameter estimates±SE) to Equation 1 using a non-linear, least squares (Marquardt-Levenburg) algorithm (SigmaPlot 11, Systat Software, Inc., San Jose, Calif.). […] Note: the logarithmic scale is used on the y axis.
These times are indicated by the short vertical lines on the time axis. […] The y axis is plotted on the log 10 scale.
As it relates to the SMART® Adherence System, the concentration rise (rapid absorption of AEM and conversion to EDIM) and decay of the EDIM with time in breath following oral administration of the AEM is well described by a 1 compartmental (monoexponential) pharmacokinetic (PK) model, reflecting absorption and elimination, which can be described by the following equation (dertived from Miller's Anesthesia, 6th Edition, p 81, 2005, Ed: Ronald D. Miller, Elsevier Churchill Livingstone, Philadelphia, Pa.):
In this example, an initial 1st AEM dose pharmacokinetic (PK) analysis over a period of 0 to a maximum of 24 hours is carried out. […] Note: To ensure an accurate EDIM t1/2a ideally the last time point measured in this 1st dose PK analysis includes the EDIM trough concentration (i.e., the concentration at the time point just prior to the 2nd dose). The AEM could either consist of ordinary or non-ordinary cold isotopes, which generate ordinary and non-ordinary cold isotopic labeled EDIMs. The EDIM levels in breath are measured using the appropriate SMART® device type as disclosed herein.

[9] = Example 30: sodium alkyl carbonates, stability and breath ketones after ingestion (FIG. 83)
Experimental: Isopropanol (1000 mL) was taken lab reactor and added Na metal (6 g). The reaction mixture was heated to 80° C. for 3 h (sodium metal dissolved, clear solution was observed). The reaction mixture was cooled to 0 to 5° C. and purged CO2 (thick suspension was observed after 30 min). Aliquot were drawn after 30 min, concentrated and the solid obtained was analyzed by 1H NMR. The reaction mixture was allowed to stir for additional 30 min. The complete reaction mixture was rinsed with isopropanol (100 mL) and transferred to an R.B flask, concentrated under vacuum to get white solid. The solid obtained after concentration was dried under vacuum at 40° C. at 1 h to get 26 g of white solid.
Sodium isopropoxy carbonate is formed according to this method. The MAC from isopropanol seems to decompose at 60° C. MAC on treatment with water decomposes and white solid was isolated.
The solution was cooled to between 0 and 5° C. and purged with CO2 for 45 minutes. The resulting suspension was concentrated under high vacuum at 40-50° C. to obtain 15 g of white solid. ^1H-NMR: δ ppm (in D2O)=0.89 (triplet, 3H), 1.17 (doublet, 3H), 1.50 (multiplet, 2H), 4.38 (multiplet, 1H) ^13C-NMR: δ ppm (in D2O)=9.48, 19.59, 28.97, 73.96 and 159.61. IR: ν (cm^−1)=1651, 1458, 1369 and 1289 (indicative of an alkyl carboxylate).
Synthesis 2: Six grams of Na metal was dissolved in 100 mL of anhydrous isopropanol at 80° C. […]

## CCCC(C)O (centres unmarked) [Formulation 2-pentanol, 2-pentanol]
[1]; oral
  LD50 Oral Rat: 1470 mg/kg

## C[S+](C)[O-] [DMSO, dimethyl sulfoxide]
[2]; humans
  elimination half life: 12 to 15 h
[3]
  permissible daily exposure (PDE): 50 mg/day

## CC(C)=O [acetone]
[4]; elimination half life in breath, Example 26 / FIG. 74, after d8-IPA
  Half-life: ~6.4 h
[4]; half-life of acetone derived from IPA, exhaled breath
  Half-life: ~6.5 h
IPA 138 mg orally per day (PDE)
  CMAX assuming dose proportionality: 4131 ppb
[5]; 100 mg IPA daily
  time for trough concentrations to reach steady state: 1 to 2 days
[5]; 100 mg IPA for 5 successive days, Type 1 (mGC) device
  breath concentration: 2700 to 3000 ppb
[5]; 100 mg IPA oral
  maximum breath concentration: 2800 ppb
[5]; 100 mg IPA oral, 15 and 30 min
  rise of breath concentration over baseline: greater than 6 ×
[2]; Jones, J Anal Toxicol 2000
  average elimination half life in humans: 22 h
  metabolic/elimination half life in humans: 17 to 27 h
clinical
  Half-life: < 10 h
[3]
  permissible daily exposure (PDE): 210 mg/day

## CCOC(=O)C(C)C [ethyl isobutyrate]
[1]; oral
  LD50 Oral Rat: 13000 mg/kg

## [2H]OC([2H])(C([2H])([2H])[2H])C([2H])([2H])[2H] [d8-IPA, d8-isopropanol]
Single 100 mg dose
  OrbiTrap peak height: 360,000 peak height
  OrbiTrap response relative to background endogenous breath acetone: approximately 5.14 ×

## CCCC(C)=O [Formulation 2-pentanone, 2-pentanone]
[6]; both sexes, Half-life
  Half-life: 0.395 h
[6]; both sexes, MRT0-Last
  MRT last: 0.42 h
[6]; both sexes, MRT0-last
  MRT last: 0.423 h
[6]; both sexes, TMAX
  TMAX: 0.247 h
[6]; both
  TThresh range between replicates: 5 to 7 min
[6]
  AUC0-8: 58214 min · ppb
  observed CMAX range: 536-2,072 ppb

## CCCOC(C)=O [propyl acetate]
[1]; in vivo, po
  LD50 Oral Rat: 9370 mg/kg

## COC(=O)c1ccc(O)cc1 [Methyl paraben]
[7]
  Breath Metabolites: Methanol + para- hydroxybenzoic acid (POHBA)

## [2H]C([2H])([2H])C(=O)C([2H])([2H])[2H] [d6-acetone]
[4]
  Average k: Average k = −0.1079
  elimination half life in breath: 6.4 h
  exhaled breath peak height: 62000 peak height
  time after a dose up to which deviations from steady state are detectable: up to 65 hours
  t½: t½ ≃ 6.4 h
[4]; 24 h
  maximum peak response remaining after 24 h: 6-10%
[8]; human
  TMAX: 1.46 h
  steady state CMAX: 1819 ppb
[8]; human, 100 mg
  CMAX, 1st dose: 1561 ppb
[8]
  FLost: 0.859
  accumulation factor (AF): 1.165
  steady state CTrough: 267 ppb
100 mg d8-IPA
  TMAX: 3 h
100 mg d8-IPA, assuming breath acetone of 582 ppb
  maximum breath concentration (CMAX): 2,993 ppb

## CCCCOC(=O)c1ccc(O)cc1 [Butyl paraben]
[7]
  Breath Metabolites: Butanol + POHBA

## CC(=O)OCCC(C)C [isoaryl (isopentyl) acetate]
[1]; oral
  LD50 Oral Rat: 16600 mg/kg

## CCCCCCOC(C)=O [hexyl acetate]
[1]; oral
  LD50 Oral Rat: 30147 mg/kg

## COC(=O)C(C)C [methylisobutyrate]
[1]; oral
  LD50 Oral Rat: 5000 mg/kg

## CCC(=O)OC [methyl propionate]
[1]; oral
  LD50 Oral Rat: 5000 mg/kg

## CCOC(=O)c1ccc(O)cc1 [Ethyl paraben]
[7]
  Breath Metabolites: Ethanol + POHBA

## CC(C)OC(=O)O [MAC from isopropanol, Sodium Isopropyl Carbonate]
[9]
  temperature at which it seems to decompose: 60 °C
